Here are results for two compounds from PMC2762027, “Potencies of Cocaine Methiodide on Major Cocaine Targets in Mice” (PLoS ONE, 2009).

Assay [1] addresses mouse DAT (Mus musculus, UniProt Q61327). Briefly: Dopamine uptake into HeLa cells transiently transfected with mDAT. The class given is cell-based.
The target of assay [2] is mouse NET (Mus musculus, UniProt O55192). Nature of the assay: Norepinephrine uptake into HeLa cells transiently transfected with mNET. In kind it is cell-based.
Assay [3] has as its target mouse SERT (Mus musculus, UniProt Q60857). Nature of the assay: Serotonin uptake into HeLa cells transiently transfected with mSERT. The class given is cell-based.
Assay [4] has as its target T1, dopamine uptake by striatal synaptosomes (Mus musculus, UniProt Q61327).
T1 construct: C57B6 mice (aged 6–8 weeks) were decapitated and striatum were dissected from both sides of the brain; from tissue; host or cells: striatal synaptosomes of C57B6 mice
Nature of the assay: Dopamine reuptake into striatal synaptosomes. The class given is biochemical. The protocol: All animal work was conducted in adherence to OSU IACUC approved protocols and guidelines for animal welfare. C57B6 mice (aged 6–8 weeks) were decapitated and striatum were dissected from both sides of the brain and stored on ice. The tissues were placed in ice-cold Krebs'-Ringer's solution buffer (KRB) (in mM: 125 NaCl, 1.2 KCl, 1.2 MgSO4, 1.2 CaCl2, 22 NaHCO3, 1 NaH2PO4, and 10 glucose, adjusted to pH 7.4) with an additional 0.32 M sucrose. Tissue samples were homogenized by using a glass homogenizing tube and with a Teflon-coated pestle. The samples were centrifuged for 10 min at 1,000xg. Supernatant was collected and the debris pellet was discarded. Supernatant was centrifuged for 15 min at 16,000x g. […] Amounts of [^3H]-labeled dopamine accumulated were quantitated by liquid-scintillation counting. All experiments were performed in triplicates. Synaptosomes with the highest dose of inhibitor were used as background controls and radioactivity associated with these wells were subtracted from the total scintillation counts of all wells.
The IC50 values were determined by nonlinear regression analyses of experimental data using GraphPad Prism 3.0 (San Diego, CA). IC50 values presented are averages ± standard error of means (SEM) calculated from 3 independent uptake experiments or recordings of 4 different DRG neurons. Statistical analyses for the difference between the IC50 values of the two drugs were performed by Student's paired t-test using SPSS 17.0 (Chicago, IL).

Assay [5] deals with DRG neuron Na+ channels. Nature of the assay: Whole-cell voltage clamp recording of sodium channel currents in dorsal root ganglion neurons. In kind it is cell-based, mouse. To be noted: for IC50: isolated mouse DRG neurons, whole-cell patch clamp, held at -70 mV, read-out: IC50, inhibition of DRG neuron Na+ channels. The protocol:
Dorsal root ganglion (DRG) neurons (T1–T10) from adult male C57B6 mice (aged 6–8 weeks) were isolated as per Malin et al. Briefly, ganglia were dissected under stereo microscope and washed in Ca^2+/Mg^2+-free Hank's Buffered Salt Solution (HBSS). DRGs were digested enzymatically, first with papain and then collagenase II and dispase II, each for 10 min at 37°C. Digested DRGs were then triturated in culture media (F-12 supplemented with 10% FBS and 5 mg/ml penicillin/streptomycin) by a fire-polished Pasteur pipette until solution becomes cloudy. Isolated DRG neurons were plated on poly-ornithine coated glass cover slips and maintained in a 37°C, 5% CO2 incubator. Individual DRG neurons were recorded after overnight culture.
Plated coverslips were centered in a perfusion chamber filled with extracellular solution (ECS) containing (in mM): 140 NaCl, 5 KCl, 2 CaCl2, 1 MgCl2, 10 glucose, 10 HEPES, pH 7.4. Cocaine and CM were dissolved in ECS and delivered via a pressure-driven perfusion system (SmartSquirt 8, AutoMate Scientific) with the tip positioned so the DRG neuron being recorded was fully within the direct stream of perfusate. Recording pipettes were pulled from micropipette glass (World Precision Instruments, Sarasota FL) to 2–4 MΩ when filled with an intracellular solution containing (in mM): 140 […], 1 CaCl2, 2 MgCl2, 11 EGTA, 10 HEPES, 2 Mg2ATP, pH 7.2). Whole-cell recordings were made using an EPC10 amplifier and the PatchMaster 2.2.0 software (both from HEKA Electronik, Germany). As soon as the whole-cell configuration was established, fast and slow capacitances were cancelled and the holding potential (Vh) was set to -70 mV. A step protocol ([…] from −70 mV to 10 mV with 5 mV increment for each step) was applied to determine the testing voltage (Vt) that generated the maximal inward current in the following experiment. […] Only one cell per cover slip was recorded to avoid possible drug contamination of other cells. […]
A range of drug concentrations, starting from low to high, were tested for each DRG neuron. The sodium channel currents were recorded 30 s before the drug application, during the 30 s drug application, and 30–60 s after drug washout by perfusion with ECS. For each set of tests, current amplitude was measured by subtracting the baseline value from the peak current. […] The currents measured after the drug washout were used to confirm the complete recovery before testing the next drug concentration.
The IC50 values were determined by nonlinear regression analyses of experimental data using GraphPad Prism 3.0 (San Diego, CA). IC50 values presented are averages ± standard error of means (SEM) calculated from 3 independent uptake experiments or recordings of 4 different DRG neurons. […]

The test system of assay [6] is sodium channels. Details: method as in PMID 16406254. Particulars: cited from earlier work.

Entries after “also recorded” stand apart in the source; their conditions may differ. Read-outs that look alike come from different tables or passages of the source. Where only a bound is given, the exact number is not on record here.

mouse NET, sequence (O55192 whole entry): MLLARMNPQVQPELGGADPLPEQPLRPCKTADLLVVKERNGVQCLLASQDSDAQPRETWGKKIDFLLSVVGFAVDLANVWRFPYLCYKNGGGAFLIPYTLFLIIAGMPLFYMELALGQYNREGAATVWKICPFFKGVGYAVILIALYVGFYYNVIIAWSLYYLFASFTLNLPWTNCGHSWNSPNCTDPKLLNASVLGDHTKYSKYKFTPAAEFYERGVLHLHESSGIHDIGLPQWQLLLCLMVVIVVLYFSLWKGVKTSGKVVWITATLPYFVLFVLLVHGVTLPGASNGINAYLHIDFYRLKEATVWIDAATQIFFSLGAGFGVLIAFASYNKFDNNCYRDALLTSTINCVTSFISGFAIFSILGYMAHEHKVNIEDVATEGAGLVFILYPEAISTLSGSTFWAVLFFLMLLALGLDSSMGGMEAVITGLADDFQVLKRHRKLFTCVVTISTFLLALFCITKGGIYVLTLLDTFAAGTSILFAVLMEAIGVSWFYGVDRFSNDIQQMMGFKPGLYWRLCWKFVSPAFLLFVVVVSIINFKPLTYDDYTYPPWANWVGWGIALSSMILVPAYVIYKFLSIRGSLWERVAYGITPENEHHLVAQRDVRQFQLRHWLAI
mouse SERT, sequence (Q60857 whole entry): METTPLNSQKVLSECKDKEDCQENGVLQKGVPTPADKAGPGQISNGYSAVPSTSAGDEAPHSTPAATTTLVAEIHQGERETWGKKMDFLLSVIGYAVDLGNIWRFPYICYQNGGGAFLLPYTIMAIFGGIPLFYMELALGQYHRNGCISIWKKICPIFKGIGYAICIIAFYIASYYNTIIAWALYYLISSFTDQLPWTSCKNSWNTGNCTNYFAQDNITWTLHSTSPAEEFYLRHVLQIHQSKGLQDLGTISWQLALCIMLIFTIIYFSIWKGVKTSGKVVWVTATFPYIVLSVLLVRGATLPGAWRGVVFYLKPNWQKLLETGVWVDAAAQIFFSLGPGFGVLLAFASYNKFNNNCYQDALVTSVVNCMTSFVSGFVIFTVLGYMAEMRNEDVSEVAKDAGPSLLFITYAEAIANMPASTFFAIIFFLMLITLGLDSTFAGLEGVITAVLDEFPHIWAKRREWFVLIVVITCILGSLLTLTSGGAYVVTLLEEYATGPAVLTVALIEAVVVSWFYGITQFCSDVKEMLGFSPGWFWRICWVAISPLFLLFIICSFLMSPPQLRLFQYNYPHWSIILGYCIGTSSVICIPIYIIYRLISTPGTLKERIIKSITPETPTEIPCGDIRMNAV
T1 sequence (Q61327 whole entry): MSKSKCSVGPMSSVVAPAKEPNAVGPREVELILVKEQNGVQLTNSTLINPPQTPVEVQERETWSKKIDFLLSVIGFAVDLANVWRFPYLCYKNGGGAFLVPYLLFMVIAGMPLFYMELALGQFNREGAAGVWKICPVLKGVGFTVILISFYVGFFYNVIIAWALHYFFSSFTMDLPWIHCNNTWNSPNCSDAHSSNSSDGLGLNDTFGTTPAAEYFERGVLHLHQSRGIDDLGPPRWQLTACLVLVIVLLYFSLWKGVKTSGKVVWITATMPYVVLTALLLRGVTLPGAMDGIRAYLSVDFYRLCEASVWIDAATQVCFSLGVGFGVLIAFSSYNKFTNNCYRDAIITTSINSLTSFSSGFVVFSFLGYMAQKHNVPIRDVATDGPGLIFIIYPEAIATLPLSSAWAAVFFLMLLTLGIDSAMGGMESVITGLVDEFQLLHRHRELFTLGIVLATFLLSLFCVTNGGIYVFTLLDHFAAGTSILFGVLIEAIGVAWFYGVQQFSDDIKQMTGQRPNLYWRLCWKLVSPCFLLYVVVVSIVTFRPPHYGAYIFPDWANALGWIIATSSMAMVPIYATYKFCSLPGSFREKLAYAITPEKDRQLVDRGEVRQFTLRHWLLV
mouse DAT, sequence (Q61327 whole entry): as above

For the compound `COC(=O)[C@H]1[C@@H](OC(=O)c2ccccc2)C[C@@H]2CC[C@H]1N2C` [Cocaine], the IC50 in assay [1] was 0.45 ± 0.11 µM; in assay [2], 0.67 ± 0.09 µM; in assay [3] it was 0.68 ± 0.39 µM; in assay [4], 0.35 ± 0.11 µM; in assay [5] (n = 4 cells, listed as cocaine) it was 85 µM; in assay [5] (n = 4 cells), 84.8 ± 5.9 µM. Besides, in assay [5] (cocaine, DRG Na+ channels vs DAT, NET, SERT), the “sodium channel IC50 relative to those for the monoamine transporters” value was “roughly 100 fold”. Moreover, the “potency for blocking sodium channels” value in assay [6] is not below 50 µM.

As for `COC(=O)[C@H]1[C@@H](OC(=O)c2ccccc2)C[C@@H]2CC[C@H]1[N+]2(C)C.[I-]` [Cocaine Methiodide, Cocaine methiodide], the “ratio of IC50 values, cocaine methiodide / cocaine, mDAT” value in assay [1] (transfected HeLa cells) was determined as 184 fold. The IC50 stood at 83.2 ± 2.1 µM in assay [1] (transfected HeLa cells, 60 nM [3H] substrate, mean ± SEM, 3 experiments, read-out: IC50, inhibition of dopamine uptake by mDAT); 20.9 ± 3.1 µM in assay [2] (transfected HeLa cells, 60 nM [3H] substrate, mean ± SEM, 3 experiments, read-out: IC50, inhibition of norepinephrine uptake by mNET); 84.3 ± 4.8 µM in assay [3] (transfected HeLa cells, 60 nM [3H] substrate, mean ± SEM, 3 experiments, read-out: IC50, inhibition of serotonin uptake by mSERT); 11.7 ± 5.1 µM in assay [4] (mouse striatum synaptosomes, 60 nM [3H]dopamine, 100 µM desipramine, mean ± SEM, 3 experiments, listed as CM, read-out: IC50, inhibition of dopamine uptake by striatal synaptosomes); 11.5 ± 5.1 µM in assay [4] (mouse striatum synaptosomes, 60 nM [3H]dopamine, 100 µM desipramine, mean ± SEM, 3 experiments, read-out: IC50, inhibition of dopamine uptake by striatal synaptosomes). Also, in assay [2] (transfected HeLa cells), the “ratio of IC50 values, cocaine methiodide / cocaine, mNET” value worked out at 31 fold. The “ratio of IC50 values, cocaine methiodide / cocaine, mSERT” value in assay [3] (transfected HeLa cells) was 123 fold. In addition, the “ratio of IC50 values, cocaine methiodide / cocaine, striatal synaptosomes” value in assay [4] (dopamine uptake, mouse striatal synaptosomes) stood at 33 fold. The “effect on sodium channel currents (peak inward current) in DRG neurons” value in assay [5] (concentrations up to 3 mM, the highest tested, n = 4 cells, p>0.05, listed as CM) is “very little inhibition; also recorded: no observable effect; also recorded: little observable effect; also recorded: does not inhibit”.

By IC50 is commonly meant the midpoint of a concentration-inhibition curve.
